Columns and labels:
[1] = target: Serine/threonine-protein kinase B-raf (Homo sapiens, UniProt P15056); experiment: Inhibition of human wild type BRAF by Kinase-Glo luminescence assay
[2] = target: Vascular endothelial growth factor receptor 2 (Homo sapiens, UniProt P35968); experiment: Inhibition of human N-terminal GST tagged VEGFR-2 expressed in baculovirus infected Sf9 cells using poly (Glu,Tyr) 4:1 as substrate in presence of ATP by Kinase-Glo luminescence assay
[3] = tested on: MCF7; experiment: Inhibition of VEGFR2 level in human MCF7 cells at 10 uM measured after 48 hrs by ELISA relative to control; type: functional; conditions: MCF7, 48 h
[4] = tested on: MCF7; experiment: Cytotoxicity against human MCF7 cells expressing VEGFR2 and wild type BRAF measured after 48 hrs by sulforhodamine B assay; type: functional, cell-based; conditions: MCF7, 48 h
[5] = tested on: T47D; experiment: Cytotoxicity against human T47D cells expressing wild type BRAF measured after 48 hrs by sulforhodamine B assay; type: functional, cell-based
[6] = tested on: Malme-3M; experiment: Growth inhibition of human MALME-3M cells at 10 uM incubated for 48 hrs by sulforhodamine B assay relative to control; type: functional; conditions: read-out: GI
[7] = tested on: CAKI-1; experiment: Growth inhibition of human Caki1 cells at 10 uM incubated for 48 hrs by sulforhodamine B assay relative to control; type: functional; conditions: CAKI-1, 48 h, read-out: GI
[8] = tested on: A549; experiment: Growth inhibition of human A549/ATCC cells at 10 uM incubated for 48 hrs by sulforhodamine B assay relative to control; type: functional; conditions: A549, 48 h, read-out: GI
[9] = tested on: UACC-62; experiment: Growth inhibition of human UACC62 cells at 10 uM incubated for 48 hrs by sulforhodamine B assay relative to control; type: functional; conditions: UACC-62, 48 h, read-out: GI
[10] = tested on: Hs-578T; experiment: Growth inhibition of human Hs578T cells at 10 uM incubated for 48 hrs by sulforhodamine B assay relative to control; type: functional; conditions: read-out: GI
[11] = tested on: NCI-H522; experiment: Growth inhibition of human NCI-H522 cells at 10 uM incubated for 48 hrs by sulforhodamine B assay relative to control; type: functional; conditions: NCI-H522, 48 h, read-out: GI
[12] = tested on: HOP-92; experiment: Growth inhibition of human HOP92 cells at 10 uM incubated for 48 hrs by sulforhodamine B assay relative to control; type: functional; conditions: HOP-92, 48 h, read-out: GI
[13] = tested on: A498; experiment: Growth inhibition of human A498 cells at 10 uM incubated for 48 hrs by sulforhodamine B assay relative to control; type: functional; conditions: A498, 48 h, read-out: GI
[14] = tested on: PC-3; experiment: Growth inhibition of human PC3 cells at 10 uM incubated for 48 hrs by sulforhodamine B assay relative to control; type: functional; conditions: PC-3, 48 h, read-out: GI
[15] = tested on: EKVX; experiment: Growth inhibition of human EKVX cells at 10 uM incubated for 48 hrs by sulforhodamine B assay relative to control; type: functional; conditions: read-out: GI
[16] = tested on: IGROV-1; experiment: Growth inhibition of human IGROV1 cells at 10 uM incubated for 48 hrs by sulforhodamine B assay relative to control; type: functional; conditions: IGROV-1, 48 h, read-out: GI
[17] = tested on: UO-31; experiment: Growth inhibition of human UO31 cells at 10 uM incubated for 48 hrs by sulforhodamine B assay relative to control; type: functional; conditions: UO-31, 48 h, read-out: GI
[18] = tested on: MDA-MB-231; experiment: Growth inhibition of human MDA-MB-231 cells at 10 uM incubated for 48 hrs by sulforhodamine B assay relative to control; type: functional; conditions: MDA-MB-231, 48 h, read-out: GI
[19] = tested on: NCI-H226; experiment: Growth inhibition of human NCI-H226 cells at 10 uM incubated for 48 hrs by sulforhodamine B assay relative to control; type: functional; conditions: NCI-H226, 48 h, read-out: GI
[20] = tested on: SNB-75; experiment: Growth inhibition of human SNB75 cells at 10 uM incubated for 48 hrs by sulforhodamine B assay relative to control; type: functional; conditions: SNB-75, 48 h, read-out: GI
[21] = tested on: MDA-MB-468; experiment: Growth inhibition of human MDA-MB-468 cells at 10 uM incubated for 48 hrs by sulforhodamine B assay relative to control; type: functional; conditions: MDA-MB-468, 48 h, read-out: GI
[22] = tested on: BT-549; experiment: Growth inhibition of human BT549 cells at 10 uM incubated for 48 hrs by sulforhodamine B assay relative to control; type: functional; conditions: BT-549, 48 h, read-out: GI
[23] = tested on: MOLT-4; experiment: Growth inhibition of human MOLT4 cells at 10 uM incubated for 48 hrs by sulforhodamine B assay relative to control; type: functional; conditions: MOLT-4, 48 h, read-out: GI
[24] = tested on: SK-MEL-5; experiment: Growth inhibition of human SK-MEL-5 cells at 10 uM incubated for 48 hrs by sulforhodamine B assay relative to control; type: functional; conditions: SK-MEL-5, 48 h, read-out: GI
[25] = tested on: SR; experiment: Growth inhibition of human SR cells at 10 uM incubated for 48 hrs by sulforhodamine B assay relative to control; type: functional; conditions: read-out: GI
[26] = tested on: NCI/ADR-RES; experiment: Growth inhibition of human NCI/ADR-RES cells at 10 uM incubated for 48 hrs by sulforhodamine B assay relative to control; type: functional; conditions: read-out: GI
[27] = tested on: NCI-H23; experiment: Growth inhibition of human NCI-H23 cells at 10 uM incubated for 48 hrs by sulforhodamine B assay relative to control; type: functional; conditions: NCI-H23, 48 h, read-out: GI
[28] = tested on: OVCAR-8; experiment: Growth inhibition of human OVCAR8 cells at 10 uM incubated for 48 hrs by sulforhodamine B assay relative to control; type: functional; conditions: OVCAR-8, 48 h, read-out: GI
[29] = tested on: CCRF-CEM; experiment: Growth inhibition of human CCRF-CEM cells at 10 uM incubated for 48 hrs by sulforhodamine B assay relative to control; type: functional; conditions: read-out: GI
[30] = tested on: SN12C; experiment: Growth inhibition of human SN12C cells at 10 uM incubated for 48 hrs by sulforhodamine B assay relative to control; type: functional; conditions: read-out: GI
[31] = tested on: HCT-116; experiment: Growth inhibition of human HCT116 cells at 10 uM incubated for 48 hrs by sulforhodamine B assay relative to control; type: functional; conditions: HCT-116, 48 h, read-out: GI
[32] = tested on: K562; experiment: Growth inhibition of human K562 cells at 10 uM incubated for 48 hrs by sulforhodamine B assay relative to control; type: functional; conditions: K562, 48 h, read-out: GI
[33] = tested on: LOX IMVI; experiment: Growth inhibition of human LOXIMVI cells at 10 uM incubated for 48 hrs by sulforhodamine B assay relative to control; type: functional; conditions: read-out: GI
[34] = tested on: ACHN; experiment: Growth inhibition of human ACHN cells at 10 uM incubated for 48 hrs by sulforhodamine B assay relative to control; type: functional; conditions: read-out: GI
[35] = tested on: MCF7; experiment: Growth inhibition of human MCF7 cells at 10 uM incubated for 48 hrs by sulforhodamine B assay relative to control; type: functional; conditions: MCF7, 48 h, read-out: GI
[36] = tested on: RPMI-8226; experiment: Growth inhibition of human RPMI8226 cells at 10 uM incubated for 48 hrs by sulforhodamine B assay relative to control; type: functional; conditions: RPMI-8226, 48 h, read-out: GI
[37] = tested on: T47D; experiment: Growth inhibition of human T47D cells at 10 uM incubated for 48 hrs by sulforhodamine B assay relative to control; type: functional; conditions: read-out: GI

Chain of Serine/threonine-protein kinase B-raf (P15056 whole entry): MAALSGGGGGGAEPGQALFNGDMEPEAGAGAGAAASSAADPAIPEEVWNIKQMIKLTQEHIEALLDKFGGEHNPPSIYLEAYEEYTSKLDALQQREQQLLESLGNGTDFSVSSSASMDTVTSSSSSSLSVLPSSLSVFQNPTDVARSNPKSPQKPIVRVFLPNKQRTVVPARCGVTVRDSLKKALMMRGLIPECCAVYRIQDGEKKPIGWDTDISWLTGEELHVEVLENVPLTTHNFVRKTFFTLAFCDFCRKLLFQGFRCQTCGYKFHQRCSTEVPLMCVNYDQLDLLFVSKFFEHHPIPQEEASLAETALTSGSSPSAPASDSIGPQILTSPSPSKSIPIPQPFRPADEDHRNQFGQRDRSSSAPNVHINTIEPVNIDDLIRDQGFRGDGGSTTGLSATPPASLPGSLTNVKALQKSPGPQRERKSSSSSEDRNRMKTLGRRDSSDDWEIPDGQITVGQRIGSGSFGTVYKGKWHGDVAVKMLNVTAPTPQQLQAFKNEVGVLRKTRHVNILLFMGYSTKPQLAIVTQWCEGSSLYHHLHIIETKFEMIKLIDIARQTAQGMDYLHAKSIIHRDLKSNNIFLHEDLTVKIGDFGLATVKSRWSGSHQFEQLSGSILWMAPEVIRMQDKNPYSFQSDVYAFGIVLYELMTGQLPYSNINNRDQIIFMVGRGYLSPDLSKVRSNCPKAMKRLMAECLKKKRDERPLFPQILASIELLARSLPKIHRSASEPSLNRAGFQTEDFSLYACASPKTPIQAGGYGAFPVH
Chain of Vascular endothelial growth factor receptor 2 (P35968 whole entry): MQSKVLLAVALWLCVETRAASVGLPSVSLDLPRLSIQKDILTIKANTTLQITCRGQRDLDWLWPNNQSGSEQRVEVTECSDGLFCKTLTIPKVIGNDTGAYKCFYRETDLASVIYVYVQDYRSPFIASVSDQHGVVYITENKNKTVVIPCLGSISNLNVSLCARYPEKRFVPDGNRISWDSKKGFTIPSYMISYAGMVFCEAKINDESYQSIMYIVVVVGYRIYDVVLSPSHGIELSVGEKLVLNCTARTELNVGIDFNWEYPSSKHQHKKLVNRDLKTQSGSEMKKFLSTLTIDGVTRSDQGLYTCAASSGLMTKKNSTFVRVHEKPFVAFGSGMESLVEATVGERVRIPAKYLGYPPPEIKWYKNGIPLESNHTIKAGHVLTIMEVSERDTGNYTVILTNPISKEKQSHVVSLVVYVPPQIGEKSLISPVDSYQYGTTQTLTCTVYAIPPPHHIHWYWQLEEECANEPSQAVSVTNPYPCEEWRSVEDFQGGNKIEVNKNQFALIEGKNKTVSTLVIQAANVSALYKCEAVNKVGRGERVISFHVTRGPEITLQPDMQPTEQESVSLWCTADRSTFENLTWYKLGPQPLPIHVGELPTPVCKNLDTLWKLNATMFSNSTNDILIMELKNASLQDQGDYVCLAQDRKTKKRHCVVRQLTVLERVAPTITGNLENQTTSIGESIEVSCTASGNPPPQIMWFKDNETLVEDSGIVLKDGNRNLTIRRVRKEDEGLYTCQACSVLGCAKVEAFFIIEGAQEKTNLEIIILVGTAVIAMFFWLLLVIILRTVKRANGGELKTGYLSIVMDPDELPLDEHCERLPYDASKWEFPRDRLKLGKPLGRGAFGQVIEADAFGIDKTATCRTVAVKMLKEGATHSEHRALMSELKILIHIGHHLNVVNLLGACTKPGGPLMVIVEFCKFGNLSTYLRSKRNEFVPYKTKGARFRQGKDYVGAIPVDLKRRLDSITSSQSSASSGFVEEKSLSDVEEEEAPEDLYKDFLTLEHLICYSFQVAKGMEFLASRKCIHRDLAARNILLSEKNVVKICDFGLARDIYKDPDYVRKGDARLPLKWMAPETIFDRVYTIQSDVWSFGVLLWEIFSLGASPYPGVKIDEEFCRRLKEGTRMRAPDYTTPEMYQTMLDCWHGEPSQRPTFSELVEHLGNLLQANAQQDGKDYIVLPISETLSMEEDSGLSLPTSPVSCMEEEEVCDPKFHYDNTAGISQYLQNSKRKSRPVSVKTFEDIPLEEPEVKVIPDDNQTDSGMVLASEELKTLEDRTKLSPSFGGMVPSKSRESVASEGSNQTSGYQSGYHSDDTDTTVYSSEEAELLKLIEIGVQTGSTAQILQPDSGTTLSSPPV

O=C(O)c1ccc(Nc2ccnc(SCC(=O)c3ccc(Cl)cc3)n2)cc1
IC50 [1]: 0.37 µM | IC50 [2]: 0.17 µM | inhibition at 10 µM [3]: 35% | IC50 [4]: 37.2 µM

COc1ccc(C(=O)CSc2nccc(Nc3ccc(C(C)=O)cc3)n2)cc1
IC50 [2]: 0.49 µM | IC50 [4]: 80.3 µM

O=C(O)c1ccc(Nc2ccnc(SCC(=O)c3ccc(-c4ccccc4)cc3)n2)cc1
IC50 [2]: 0.57 µM | IC50 [4]: 49 µM

CCOC(=O)c1ccc(Nc2ccnc(SCC(=O)c3ccc(C(F)(F)F)cc3)n2)cc1
IC50 [2]: 1.96 µM | inhibition at 10 µM [3]: 76% | IC50 [4]: 19.6 µM | IC50 [5]: 32.1 µM

CC(=O)c1cccc(Nc2ccnc(SCC(=O)c3ccc(Cl)cc3)n2)c1
IC50 [2]: 0.48 µM | IC50 [4]: 53.6 µM | IC50 [5]: 33 µM

CNC(=O)c1cc(Oc2ccc(NC(=O)Nc3ccc(Cl)c(C(F)(F)F)c3)cc2)ccn1 [SORAFENIB]
inhibition at 10 µM [3]: 90% | IC50 [4]: 4.33 µM | IC50 [5]: 1.6 µM

CCOC(=O)c1ccc(Nc2ccnc(SCC(=O)c3ccc(OC)cc3)n2)cc1
IC50 [1]: 0.41 µM | IC50 [2]: 0.19 µM | inhibition at 10 µM [3]: 12% | IC50 [4]: 32.1 µM | IC50 [5]: 43.4 µM

COc1ccc(C(=O)CSc2nccc(Nc3ccc(C(=O)O)cc3)n2)cc1
IC50 [2]: 1.43 µM | inhibition at 10 µM [3]: 40% | IC50 [4]: 37.8 µM

CCOC(=O)c1ccc(Nc2ccnc(SCC(=O)c3ccc(-c4ccccc4)cc3)n2)cc1
IC50 [2]: 0.34 µM | IC50 [4]: 68.5 µM

N#Cc1ccc(C(=O)CSc2nccc(Nc3ccc(N4CCOCC4)cc3)n2)cc1
IC50 [2]: 1.1 µM | IC50 [4]: 69 µM

O=C(O)c1ccc(Nc2ccnc(SCC(=O)c3ccc(C(F)(F)F)cc3)n2)cc1
inhibition of growth at 10 µM [6]: 30% | inhibition of growth at 10 µM [7]: 19% | inhibition of growth at 10 µM [8]: 10% | inhibition of growth at 10 µM [9]: 12% | inhibition of growth at 10 µM [10]: 10% | inhibition of growth at 10 µM [11]: 15% | inhibition of growth at 10 µM [12]: 16% | inhibition of growth at 10 µM [13]: 39% | inhibition of growth at 10 µM [14]: 12% | inhibition of growth at 10 µM [15]: 10% | IC50 [2]: > 10 µM | inhibition of growth at 10 µM [16]: 13% | inhibition of growth at 10 µM [17]: 32% | inhibition of growth at 10 µM [18]: 24% | IC50 [4]: 67.5 µM | inhibition of growth at 10 µM [19]: 13% | inhibition of growth at 10 µM [20]: 28%

CC(=O)c1ccc(Nc2ccnc(SCC(=O)c3ccc(Br)cc3)n2)cc1
inhibition of growth at 10 µM [21]: 21% | inhibition of growth at 10 µM [7]: 24% | inhibition of growth at 10 µM [22]: 19% | inhibition of growth at 10 µM [8]: 10% | inhibition of growth at 10 µM [9]: 23% | inhibition of growth at 10 µM [23]: 39% | inhibition of growth at 10 µM [24]: 17% | inhibition of growth at 10 µM [25]: 25% | inhibition of growth at 10 µM [26]: 31% | inhibition of growth at 10 µM [27]: 16% | inhibition of growth at 10 µM [28]: 18% | inhibition of growth at 10 µM [11]: 29% | inhibition of growth at 10 µM [29]: 30% | inhibition of growth at 10 µM [30]: 14% | inhibition of growth at 10 µM [13]: 19% | inhibition of growth at 10 µM [31]: 10% | inhibition of growth at 10 µM [14]: 25% | inhibition of growth at 10 µM [32]: 30% | IC50 [2]: 0.95 µM | inhibition of growth at 10 µM [33]: 14% | inhibition at 10 µM [3]: 76% | inhibition of growth at 10 µM [16]: 12% | inhibition of growth at 10 µM [34]: 10% | inhibition of growth at 10 µM [17]: 38% | inhibition of growth at 10 µM [18]: 12% | IC50 [4]: 17.2 µM | inhibition of growth at 10 µM [19]: 25% | inhibition of growth at 10 µM [35]: 18% | inhibition of growth at 10 µM [36]: 35% | inhibition of growth at 10 µM [37]: 44% | inhibition of growth at 10 µM [20]: 13%

O=C(O)c1ccc(Nc2ccnc(SCC(=O)c3ccc(Br)cc3)n2)cc1
IC50 [2]: > 10 µM | IC50 [4]: 81.2 µM

O=C(O)c1ccc(Nc2ccnc(SCC(=O)c3ccc([N+](=O)[O-])cc3)n2)cc1
IC50 [2]: > 10 µM | IC50 [4]: 53.2 µM

CCOC(=O)c1ccc(Nc2ccnc(SCC(=O)c3ccc(Cl)cc3)n2)cc1
IC50 [2]: > 10 µM | IC50 [4]: 20 µM

N#Cc1ccc(C(=O)CSc2nccc(Nc3ccc(C(=O)O)cc3)n2)cc1
IC50 [1]: 1.7 µM | IC50 [2]: 0.12 µM | inhibition at 10 µM [3]: 77% | IC50 [4]: 17.2 µM

Reference: ChEMBL document CHEMBL4396916, “Novel potent substituted 4-amino-2-thiopyrimidines as dual VEGFR-2 and BRAF kinase inhibitors” (Eur J Med Chem, 2019)
